Measurements: ChEMBL document CHEMBL1201862, “PubChem BioAssay data set” (2004)
Blank lines part the entries; values can stand above or below the compound they belong to. Active and inactive are the calls of the source.

Columns and labels:
[1] = molecular target: Voltage-gated inwardly rectifying potassium channel KCNH2 (Homo sapiens, UniProt Q12809); conditions: Potency;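 further: confirmatory quantitative high-throughput screen measuring inhibition of hERG channel activity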
Cytochrome P450 3A4 = Cytochrome P450 3A4 (Homo sapiens, UniProt P08684);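 further: CYP3A4 tested as one member of a cytochrome P450 panel screen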
Cytochrome P450 2C19 = Cytochrome P450 2C19 (Homo sapiens, UniProt P33261); assay: Cytochrome panel assay with activity outcomes. Panel member name: p450-cyp2c19 Compounds with AC50 equal or less than 10 uM are considered active; assay type: functional; conditions: read-out: AC50
[2] = molecular target: Dual specificity protein kinase CLK1 (Homo sapiens, UniProt P49759); assay: inhibition of human CLK1 activity – biochemical, cherry-picked samples, selectivity assay for Dyrk1A inhibitor project, dose response (AID 588811)
Cytochrome P450 2C9 = Cytochrome P450 2C9 (Homo sapiens, UniProt P11712)
NIH3T3 = assay: mammalian cell viability counter-check – Alamar Blue, fluconazole, dry powder, cytotoxicity control for antifungal drug resistance project, dose response (AID 488809); assay type: functional, cell-based; conditions: Mus musculus
Hexokinase-1 = molecular target: T1, Hexokinase-1 (Homo sapiens, UniProt P19367); assay: hexokinase 1 activity inhibitors, potency – biochemical, set 2, resazurin fluorescence coupled readout, selectivity assay for HKDC1 inhibitor project, SAR follow-up (AID 588356); assay type: functional
T1 sequence (P19367 whole entry): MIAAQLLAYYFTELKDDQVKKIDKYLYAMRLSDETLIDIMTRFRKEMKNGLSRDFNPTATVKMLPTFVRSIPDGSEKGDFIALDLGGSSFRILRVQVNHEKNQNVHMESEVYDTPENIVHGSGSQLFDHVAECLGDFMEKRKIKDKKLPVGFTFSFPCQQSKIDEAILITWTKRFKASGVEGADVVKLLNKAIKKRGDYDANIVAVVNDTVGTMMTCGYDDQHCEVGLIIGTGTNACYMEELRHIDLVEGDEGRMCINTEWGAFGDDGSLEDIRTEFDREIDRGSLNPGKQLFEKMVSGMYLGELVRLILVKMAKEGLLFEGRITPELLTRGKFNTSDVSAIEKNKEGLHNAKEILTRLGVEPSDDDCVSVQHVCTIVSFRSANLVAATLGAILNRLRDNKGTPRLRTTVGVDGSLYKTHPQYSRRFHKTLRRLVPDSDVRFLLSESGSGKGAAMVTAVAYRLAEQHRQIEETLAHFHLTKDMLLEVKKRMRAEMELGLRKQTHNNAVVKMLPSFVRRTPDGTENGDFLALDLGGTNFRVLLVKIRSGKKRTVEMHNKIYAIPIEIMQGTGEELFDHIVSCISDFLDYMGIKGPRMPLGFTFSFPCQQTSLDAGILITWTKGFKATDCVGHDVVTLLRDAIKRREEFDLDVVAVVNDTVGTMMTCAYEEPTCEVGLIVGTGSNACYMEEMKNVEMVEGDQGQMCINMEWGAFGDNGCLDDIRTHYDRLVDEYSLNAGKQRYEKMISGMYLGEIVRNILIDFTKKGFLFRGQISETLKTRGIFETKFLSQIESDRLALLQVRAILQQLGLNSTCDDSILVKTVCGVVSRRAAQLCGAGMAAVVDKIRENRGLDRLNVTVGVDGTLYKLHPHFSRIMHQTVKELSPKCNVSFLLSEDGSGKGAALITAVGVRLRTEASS

Hexokinase HKDC1 = molecular target: T2, Hexokinase HKDC1 (Homo sapiens, UniProt Q2TB90); assay: analog inhibition of human HKDC1 activity – biochemical, set 2, SAR follow-up (AID 588355); assay type: functional
T2 sequence (Q2TB90 whole entry): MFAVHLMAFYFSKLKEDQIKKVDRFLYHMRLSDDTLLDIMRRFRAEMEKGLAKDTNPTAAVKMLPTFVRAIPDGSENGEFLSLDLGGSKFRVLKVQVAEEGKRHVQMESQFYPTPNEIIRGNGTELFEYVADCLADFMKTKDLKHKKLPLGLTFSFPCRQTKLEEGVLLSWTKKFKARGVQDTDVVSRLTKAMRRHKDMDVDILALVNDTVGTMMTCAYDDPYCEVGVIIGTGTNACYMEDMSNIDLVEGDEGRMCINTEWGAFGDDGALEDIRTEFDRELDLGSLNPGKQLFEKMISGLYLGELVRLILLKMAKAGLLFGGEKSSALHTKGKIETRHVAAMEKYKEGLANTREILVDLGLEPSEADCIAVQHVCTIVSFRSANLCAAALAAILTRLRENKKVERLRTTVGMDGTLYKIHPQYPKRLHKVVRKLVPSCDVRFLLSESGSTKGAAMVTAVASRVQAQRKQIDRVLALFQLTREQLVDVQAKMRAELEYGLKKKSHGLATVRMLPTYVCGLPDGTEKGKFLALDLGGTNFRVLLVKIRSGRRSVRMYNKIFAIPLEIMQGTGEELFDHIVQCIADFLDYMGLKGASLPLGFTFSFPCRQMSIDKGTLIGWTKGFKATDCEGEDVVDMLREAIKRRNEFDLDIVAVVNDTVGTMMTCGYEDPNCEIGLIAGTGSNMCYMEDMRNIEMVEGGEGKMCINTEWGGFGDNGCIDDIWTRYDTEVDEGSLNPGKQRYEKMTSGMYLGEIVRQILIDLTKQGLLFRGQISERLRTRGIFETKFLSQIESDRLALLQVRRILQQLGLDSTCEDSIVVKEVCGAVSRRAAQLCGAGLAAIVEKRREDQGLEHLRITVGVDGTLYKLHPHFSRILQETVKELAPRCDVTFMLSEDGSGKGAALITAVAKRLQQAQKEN

[3] = molecular target: T3, Runt-related transcription factor 1/Core-binding factor subunit beta (Homo sapiens, UniProt Q01196+Q13951); assay: disruptors of Runt domain/CBFb-SMMHC interaction – biochemical, FRET, Cerulean-Runt, Venus-CBFb-SMMHC, uHTS, […] (AID 1434); assay type: protein assay
[4] = molecular target: T3, Runt-related transcription factor 1/Core-binding factor subunit beta; assay: Runt domain/CBFb-SMMHC interaction disruptors – biochemical, TR-FRET (AID 1438); assay type: protein assay
Trypsin = Trypsin (Sus scrofa, UniProt P00761); assay: trypsin protease activity blockade – biochemical, quenched peptide fluorescence, cherry-pick, selectivity assay for Rce1 protease inhibitor project, dose response (AID 488789)
CAAX prenyl protease 2 = CAAX prenyl protease 2 (Homo sapiens, UniProt Q9Y256); assay: inhibition of Ras-converting CAAX protease Rce1 – biochemical, yeast membranes, quenched-peptide fluorescence, cherry-pick, dose response (AID 588849)
[5] = molecular target: Dual specificity tyrosine-phosphorylation-regulated kinase 1A (Rattus norvegicus, UniProt Q63470); assay type: biochemical, Homo sapiens

T3 sequence (Q01196 whole entry, the tested form may be a part): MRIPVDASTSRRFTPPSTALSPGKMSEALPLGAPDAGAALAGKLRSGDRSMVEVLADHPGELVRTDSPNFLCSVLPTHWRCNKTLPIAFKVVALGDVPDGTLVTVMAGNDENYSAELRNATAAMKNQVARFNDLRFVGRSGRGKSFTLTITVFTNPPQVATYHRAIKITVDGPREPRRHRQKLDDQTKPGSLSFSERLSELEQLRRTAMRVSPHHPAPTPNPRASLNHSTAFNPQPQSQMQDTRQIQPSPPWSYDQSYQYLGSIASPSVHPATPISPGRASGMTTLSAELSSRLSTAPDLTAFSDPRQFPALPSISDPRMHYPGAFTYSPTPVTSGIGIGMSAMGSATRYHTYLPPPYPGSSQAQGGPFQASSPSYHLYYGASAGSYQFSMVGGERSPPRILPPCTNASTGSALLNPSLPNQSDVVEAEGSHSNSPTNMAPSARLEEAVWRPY
T3 sequence (Q13951 whole entry, the tested form may be a part): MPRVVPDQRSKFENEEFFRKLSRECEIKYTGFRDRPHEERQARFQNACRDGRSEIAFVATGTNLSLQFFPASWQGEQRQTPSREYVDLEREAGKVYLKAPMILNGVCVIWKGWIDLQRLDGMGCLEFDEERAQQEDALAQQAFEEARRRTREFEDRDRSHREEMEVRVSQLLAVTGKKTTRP
Chain of Cytochrome P450 3A4 (P08684 whole entry): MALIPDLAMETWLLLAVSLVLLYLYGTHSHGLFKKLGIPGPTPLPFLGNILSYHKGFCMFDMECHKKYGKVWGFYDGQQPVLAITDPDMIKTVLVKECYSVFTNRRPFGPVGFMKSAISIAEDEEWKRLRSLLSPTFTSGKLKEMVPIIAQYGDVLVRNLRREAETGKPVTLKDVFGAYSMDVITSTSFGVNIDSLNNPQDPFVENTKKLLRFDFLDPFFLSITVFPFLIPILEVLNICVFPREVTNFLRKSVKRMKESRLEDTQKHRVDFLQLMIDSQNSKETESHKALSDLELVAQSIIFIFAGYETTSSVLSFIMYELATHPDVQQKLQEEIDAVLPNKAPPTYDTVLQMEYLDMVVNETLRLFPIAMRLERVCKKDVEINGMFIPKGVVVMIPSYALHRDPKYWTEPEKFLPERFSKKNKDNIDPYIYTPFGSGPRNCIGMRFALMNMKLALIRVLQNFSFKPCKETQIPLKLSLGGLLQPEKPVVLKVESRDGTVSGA
Chain of Cytochrome P450 2C19 (P33261 whole entry): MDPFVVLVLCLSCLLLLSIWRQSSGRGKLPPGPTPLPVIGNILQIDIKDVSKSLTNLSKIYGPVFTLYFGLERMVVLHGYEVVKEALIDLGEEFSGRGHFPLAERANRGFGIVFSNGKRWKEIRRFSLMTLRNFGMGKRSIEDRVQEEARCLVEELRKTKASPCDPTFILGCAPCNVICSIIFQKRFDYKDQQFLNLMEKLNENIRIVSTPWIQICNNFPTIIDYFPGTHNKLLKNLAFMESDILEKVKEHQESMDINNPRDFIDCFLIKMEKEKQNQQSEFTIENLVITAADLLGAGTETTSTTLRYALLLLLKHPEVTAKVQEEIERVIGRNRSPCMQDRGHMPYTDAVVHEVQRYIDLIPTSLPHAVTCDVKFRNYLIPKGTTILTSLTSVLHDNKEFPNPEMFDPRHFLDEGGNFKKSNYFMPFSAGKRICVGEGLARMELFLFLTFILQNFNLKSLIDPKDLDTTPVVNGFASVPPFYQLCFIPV
Chain of Voltage-gated inwardly rectifying potassium channel KCNH2 (Q12809 whole entry): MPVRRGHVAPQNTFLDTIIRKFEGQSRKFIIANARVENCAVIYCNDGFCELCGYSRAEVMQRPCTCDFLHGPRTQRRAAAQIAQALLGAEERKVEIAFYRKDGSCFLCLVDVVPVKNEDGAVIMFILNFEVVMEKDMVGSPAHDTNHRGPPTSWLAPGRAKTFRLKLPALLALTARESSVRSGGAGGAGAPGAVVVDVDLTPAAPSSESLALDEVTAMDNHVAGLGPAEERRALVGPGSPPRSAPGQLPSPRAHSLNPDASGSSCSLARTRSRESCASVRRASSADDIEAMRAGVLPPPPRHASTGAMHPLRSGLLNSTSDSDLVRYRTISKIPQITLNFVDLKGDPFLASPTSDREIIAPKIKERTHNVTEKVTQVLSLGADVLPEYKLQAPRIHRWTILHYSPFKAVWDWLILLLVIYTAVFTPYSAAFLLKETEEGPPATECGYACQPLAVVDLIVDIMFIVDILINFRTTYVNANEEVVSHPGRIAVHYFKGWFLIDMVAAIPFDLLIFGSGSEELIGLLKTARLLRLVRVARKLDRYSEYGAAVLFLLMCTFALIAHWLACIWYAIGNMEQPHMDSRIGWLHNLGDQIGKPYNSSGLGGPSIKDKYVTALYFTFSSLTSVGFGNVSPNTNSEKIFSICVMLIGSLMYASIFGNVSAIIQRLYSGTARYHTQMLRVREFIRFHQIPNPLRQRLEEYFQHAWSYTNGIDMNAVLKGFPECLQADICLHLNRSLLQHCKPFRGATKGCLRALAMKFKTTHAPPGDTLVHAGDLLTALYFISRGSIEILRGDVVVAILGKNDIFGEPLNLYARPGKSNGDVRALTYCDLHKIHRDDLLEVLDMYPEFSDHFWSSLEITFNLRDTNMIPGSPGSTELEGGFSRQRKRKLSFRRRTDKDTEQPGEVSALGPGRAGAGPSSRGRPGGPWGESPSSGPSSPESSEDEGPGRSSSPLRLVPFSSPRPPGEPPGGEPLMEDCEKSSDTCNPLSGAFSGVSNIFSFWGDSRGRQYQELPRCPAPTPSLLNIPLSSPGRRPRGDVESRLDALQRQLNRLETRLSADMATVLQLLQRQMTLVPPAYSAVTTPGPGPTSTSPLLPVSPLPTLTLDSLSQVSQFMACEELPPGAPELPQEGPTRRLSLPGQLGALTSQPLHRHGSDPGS
Chain of Trypsin (P00761 whole entry): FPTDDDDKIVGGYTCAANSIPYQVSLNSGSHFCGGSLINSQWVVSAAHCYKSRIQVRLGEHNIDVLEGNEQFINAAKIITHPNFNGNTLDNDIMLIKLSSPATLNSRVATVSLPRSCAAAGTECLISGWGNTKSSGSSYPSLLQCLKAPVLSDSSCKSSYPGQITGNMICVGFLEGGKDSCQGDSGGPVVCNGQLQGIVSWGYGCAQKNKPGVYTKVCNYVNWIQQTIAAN
Chain of Dual specificity protein kinase CLK1 (P49759 whole entry): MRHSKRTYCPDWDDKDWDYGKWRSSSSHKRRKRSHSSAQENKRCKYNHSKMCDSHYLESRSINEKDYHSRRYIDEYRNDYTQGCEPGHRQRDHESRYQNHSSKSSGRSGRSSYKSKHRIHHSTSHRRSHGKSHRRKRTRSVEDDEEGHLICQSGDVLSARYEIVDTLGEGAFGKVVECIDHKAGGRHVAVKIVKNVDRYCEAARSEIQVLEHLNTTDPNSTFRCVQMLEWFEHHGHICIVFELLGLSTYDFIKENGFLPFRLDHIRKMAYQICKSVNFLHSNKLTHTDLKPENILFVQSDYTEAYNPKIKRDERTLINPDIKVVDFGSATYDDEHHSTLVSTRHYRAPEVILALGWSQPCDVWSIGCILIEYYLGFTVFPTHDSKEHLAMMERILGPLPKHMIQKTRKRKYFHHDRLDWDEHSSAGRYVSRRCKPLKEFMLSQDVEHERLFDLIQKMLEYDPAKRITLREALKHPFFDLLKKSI
Chain of Cytochrome P450 2C9 (P11712 whole entry): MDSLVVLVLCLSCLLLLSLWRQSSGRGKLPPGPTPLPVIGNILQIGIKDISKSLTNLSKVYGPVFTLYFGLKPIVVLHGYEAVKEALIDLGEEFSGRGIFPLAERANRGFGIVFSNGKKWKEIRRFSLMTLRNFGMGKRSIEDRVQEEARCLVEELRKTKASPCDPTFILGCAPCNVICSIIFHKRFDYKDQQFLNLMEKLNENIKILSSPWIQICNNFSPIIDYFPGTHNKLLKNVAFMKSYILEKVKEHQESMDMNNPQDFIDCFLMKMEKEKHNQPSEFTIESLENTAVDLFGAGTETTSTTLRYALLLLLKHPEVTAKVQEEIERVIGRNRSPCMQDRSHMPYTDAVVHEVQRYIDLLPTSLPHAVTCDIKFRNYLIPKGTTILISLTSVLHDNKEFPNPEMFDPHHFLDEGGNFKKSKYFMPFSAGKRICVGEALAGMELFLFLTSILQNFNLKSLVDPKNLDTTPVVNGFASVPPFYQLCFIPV
Chain of CAAX prenyl protease 2 (Q9Y256 whole entry): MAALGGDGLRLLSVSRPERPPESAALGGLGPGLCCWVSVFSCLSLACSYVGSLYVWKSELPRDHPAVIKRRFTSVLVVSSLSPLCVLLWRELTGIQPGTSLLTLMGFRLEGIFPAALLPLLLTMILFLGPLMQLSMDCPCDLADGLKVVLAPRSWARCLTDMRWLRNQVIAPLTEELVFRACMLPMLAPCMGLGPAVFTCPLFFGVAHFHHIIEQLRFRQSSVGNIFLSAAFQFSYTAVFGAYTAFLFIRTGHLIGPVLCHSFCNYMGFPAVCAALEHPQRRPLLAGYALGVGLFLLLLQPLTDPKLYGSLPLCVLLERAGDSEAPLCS

Compound: O=S(=O)(O)C1CCNCC1
AC50 [1]: 22.4 µM (inconclusive) | AC50 (Cytochrome P450 3A4): inconclusive

Compound: c1cncc(CNc2cc(-c3ccc4c(c3)OCO4)ncn2)c1
AC50 (Cytochrome P450 2C19): 25.1 µM (inconclusive) | AC50 [2]: 5.2 µM (active) | AC50 (Cytochrome P450 2C9): 0.316 µM (inconclusive)

Compound: O=C(c1ccc(Cl)cc1)N1CCN(c2cc(C(F)(F)F)nc3ccccc23)CC1
AC50 (NIH3T3): 23.2 µM (active)

Compound: Cc1ccc(S(=O)(=O)Oc2ccc(C3C4=C(CCCC4=O)N(CCC(=O)O)C4=C3C(=O)CCC4)cc2Cl)cc1
IC50 [3]: 0.393 µM (active) | IC50 [4]: 14.6 µM (active) | AC50 (Trypsin): 6.27 µM (active) | AC50 (CAAX prenyl protease 2): 11.4 µM (active)

Further lines, results first:

IC50 (Hexokinase-1): > 80 µM (inactive) | IC50 (Hexokinase HKDC1): > 80 µM (inactive)
Compound: Cc1ccc(N2C(=O)c3cccnc3C2Nc2ccc(C)c(C)c2)cc1 (stereo not drawn)

AC50 [5]: 2.01 µM (active)
Compound: COc1ccc2c(c1)CCc1sc(NC(=O)c3ccco3)nc1-2
